In patent US20260373266A1, “PROTEIN DEGRADERS AND USES THEREOF” (KYMERA THERAPEUTICS, INC., priority 2022, published 2026) one finds Kd data, which are given here for 74 compounds.

Each structure is given as a SMILES string.

The target in this test is T1, DCAF1 WD40 domain (residues 1077-1390) (Homo sapiens, UniProt Q9Y4B6).
T1 construct: DCAF1 WD40 domain (residues 1077-1390)
T1 sequence (Q9Y4B6 1077-1390): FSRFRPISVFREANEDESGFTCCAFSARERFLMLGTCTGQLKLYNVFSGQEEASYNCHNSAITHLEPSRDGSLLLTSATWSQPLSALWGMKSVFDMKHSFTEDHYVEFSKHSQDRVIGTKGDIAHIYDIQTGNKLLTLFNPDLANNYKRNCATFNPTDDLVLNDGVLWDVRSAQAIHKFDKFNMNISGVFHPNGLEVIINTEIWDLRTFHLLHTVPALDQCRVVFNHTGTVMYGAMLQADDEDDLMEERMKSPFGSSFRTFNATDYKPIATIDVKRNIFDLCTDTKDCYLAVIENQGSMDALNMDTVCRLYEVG
The experiment in a line: DCAF1 binding assay by SPR (Biacore 8K+), DCAF1-3 KD. As to conditions: 25 °C, read-out: DCAF1-3 SPR (KD). On the technique in general: SPR reads the build-up and loss of mass on a sensor chip optically.
As a reminder, the Kd is a measure of binding affinity in units of concentration. Regarding `NC[C@@H]1CC[C@@H](Nc2cc(N3CCCCC3)ccn2)CN1c1cccc(F)c1` [I-1023], the dissociation constant Kd was in the range of 10 to 100 µM.
For `OCCC[C@@H]1C[C@H]2[C@@H](CCCN2c2cccc(F)c2)N1c1cc(N2CCCCC2)ccn1` [I-831] the value was 10 to 100 µM; for `O=C1CC(C(NC(=O)c2cn[nH]c2-c2ccccc2F)c2cccc(Cl)c2)CN1` (centres unmarked) [I-561], over 200 µM; for `Cc1sc2c(c1C)C(c1ccc(Cl)cc1)=N[C@@H](CC(=O)NCCOCCOCCOCCOCCOCC(=O)c1[nH]cc(C(=O)N[C@@H](CC(N)=O)c3cccc(Cl)c3)c1-c1ccccc1F)c1nnc(C)n1-2` [I-897], under 10 µM.
For the compound `C=CC(=O)N1C[C@H](c2ccc(Br)cc2)[C@@H]1C(=O)N1CCN(c2ccnc(N[C@@H]3CCCN(c4cccc(F)c4)C3)c2)CC1` [I-641], the Kd was in the range of 10 to 100 µM.
For `c1ccc(N2CCC[C@@H](Nc3cc(N4CCOCC4)ncn3)C2)nc1` [I-11] the value was over 200 µM; for `O[C@H]1CCCN(c2ccnc(N3CC[C@@H]4[C@H]3CCCN4c3cccc(F)c3)c2)C1` [I-800], under 10 µM.
For `Cc1c(F)ccc(F)c1-c1c(C(=O)N[C@@H](CC(=O)N(C)C)c2cccc(Cl)c2)c[nH]c1C(=O)COCCOCCOCCOCCOCCN` [I-822] the value was under 10 µM.
The figure for `C=CC(=O)N1CCC(c2n[nH]cc2C(=O)N[C@@H](CC(N)=O)c2cccc(Cl)c2)=N1` [I-471] is over 200 µM; for `COCCc1[nH]nc(C(=O)N[C@@H](CC(N)=O)c2cccc(Cl)c2)c1-c1ccccc1F` [I-330] it is over 200 µM; for `c1cc(N2CCC[C@@H](Nc3nccc(N4CCOCC4)n3)C2)c2cccnc2c1` [I-53] it is 100 to 200 µM.
Regarding `Cc1c(F)ccc(F)c1-c1[nH]ncc1C(=O)N[C@@H](c1cccc(Cl)c1)[C@H]1CCCS1(=O)=O` [I-1000], the dissociation constant Kd is under 10 µM.
Take `C=CC(=O)Nc1n[nH]cc1C(=O)N[C@@H](CC(N)=O)c1cccc(Cl)c1` [I-308]: the Kd was over 200 µM.
The figure for `N#Cc1nccc(N2CCC[C@@H](Nc3cc(N4CCOCC4)ccn3)C2)n1` [I-414] is over 200 µM; for `N#Cc1nccc(CN2CCC[C@@H](Nc3cc(N4CCOCC4)ccn3)C2)n1` [I-476] it is over 200 µM.
The figure for `N#Cc1ccccc1[C@H](CC(N)=O)NC(=O)c1cn[nH]c1-c1ccccc1F` [I-342] is 10 to 100 µM.
Consider `N#Cc1ccccc1N1CCC[C@@H](Nc2cc(N3CCOCC3)ccn2)C1` [I-770], for which the Kd was 10 to 100 µM.
Take `O=C(O)C[C@H](NC(=O)c1cn[nH]c1-c1ccccc1F)c1cccc(Cl)c1` [I-740]: the Kd is 10 to 100 µM.
On to `O=C(N[C@H](c1cccc(Cl)c1)[C@@H]1CCCNC1=O)c1c[nH]nc1-c1ccccc1F` [I-195], for which the Kd was over 200 µM.
As to `Cc1cc(Cl)cc(C)c1-c1c(C(=O)N[C@@H](CC(N)=O)c2cccc(Cl)c2)c[nH]c1C(=O)c1ccccc1` [I-969], the dissociation constant (Kd) was under 10 µM.
The figure for `COCCN(C)CC1CCN(c2ccnc(N3CC[C@@H]4[C@H]3CCCN4c3cccc(F)c3)c2)CC1` [I-922] is 10 to 100 µM; for `Cc1c(F)ccc(F)c1-c1[nH]ncc1C(=O)N[C@H](c1cccc(Cl)c1)[C@H]1CCOC1` [I-968] it is 10 to 100 µM; for `CCCCN1CCN(c2cc(N[C@@H]3CCCN(c4cccc(F)c4)C3)ncn2)CC1` [I-377] it is over 200 µM.
The figure for `Fc1cccc(N2CCC[C@@H](n3ccc4c(N5CCOCC5)ccnc43)C2)c1` [I-49] is 100 to 200 µM; for `c1ccc2cc(N3CCC[C@@H](Nc4cc(N5CCOCC5)ncn4)C3)ccc2c1` [I-389] it is over 200 µM; for `NC(=O)C[C@H](NC(=O)c1n[nH]nc1-c1ncccc1F)c1cccc(Cl)c1` [I-201] it is over 200 µM.
`Fc1cccc(N2CCC[C@@H](Nc3cc(N4CC5CCC(C5)C4)ccn3)C2)c1` [I-553]: the Kd is under 10 µM.
For `Nc1cnc(N2CCCCC2)nc1N[C@@H]1CCCN(c2cccc(F)c2)C1` [I-1001] the value was 10 to 100 µM; for `Cc1cccc([C@H](CC(N)=O)NC(=O)c2cn[nH]c2-c2ccccc2F)n1` [I-143], over 200 µM; for `NC(=O)C[C@H](NC(=O)c1n[nH]nc1-c1ccccc1F)c1cccc(Cl)c1` [I-200], over 200 µM.
For `C=CC(=O)N(CCCCN1CCN(c2ccnc(N[C@@H]3CCCN(c4cccc(F)c4)C3)c2)CC1)CCOCCOCCNC(=O)C[C@@H]1N=C(c2ccc(Cl)cc2)c2c(sc(C)c2C)-n2c(C)nnc21` [I-904] the value was 10 to 100 µM.
For `c1ccc(-c2cc(N3CCC[C@@H](Nc4cc(N5CCOCC5)ccn4)C3)ccn2)nc1` [I-437] the value was 10 to 100 µM; for `N#Cc1cc2c(nc1N1CCC[C@@H](Nc3cc(N4CCOCC4)ccn3)C1)CCC2` [I-427], over 200 µM; for `c1cnc2cc(N3CCC[C@@H](Nc4nccc(N5CCOCC5)n4)C3)ccc2c1` [I-45], 10 to 100 µM.
In the case of `C[S@@+]([O-])c1ccc(N2CCC[C@@H](Nc3cc(N4CCOCC4)ccn3)C2)cc1` [I-864], the Kd was over 200 µM.
Take `NC(=O)C[C@H](NC(=O)c1cn[nH]c1C1CCOCC1)c1ccccc1` [I-501]: the dissociation constant (Kd) was 10 to 100 µM.
As for `Fc1cccc(N2CCC[C@@H](Nc3cc(N4CCOCC4)ncc3Cl)C2)c1` [I-406], the Kd was over 200 µM.
In the case of `c1cc(N2CCCCC2)cc(N[C@H]2CCC[C@H](C3CCCCC3)C2)n1` [I-750], the Kd was over 200 µM.
The figure for `NC(=O)C[C@@]1(NC(=O)c2c[nH]nc2-c2ccccc2F)CCCc2c(Cl)cccc21` [I-155] is over 200 µM.
As for `Cc1ccccc1[C@H](CC(N)=O)NC(=O)c1cn[nH]c1-c1ccccc1F` [I-105], the Kd was under 10 µM.
The figure for `COC(C)(c1cc(N2CCOCC2)ccn1)C1CCCN(c2cccc(F)c2)C1` (centres unmarked) [I-262] is over 200 µM.
The figure for `C=C1CCCN(c2ccnc(N[C@@H]3CCCN(c4cccc(F)c4)C3)c2)C1=O` [I-461] is over 200 µM; for `NS(=O)(=O)[C@@H]1[C@H](Nc2cc(N3CCOCC3)ccn2)CCCN1c1cccc(F)c1` [I-283] it is over 200 µM.
The figure for `NC(=O)C[C@@]1(NC(=O)c2cn[nH]c2-c2ccccc2F)CCc2ccc(Cl)cc21` [I-361] is over 200 µM.
As to `NCCNCc1cc(N[C@@H]2CCCN(c3cccc(F)c3)C2)cc(N2CCCCC2)c1` [I-947], the Kd lay in the range of 100 to 200 µM.
For `NC(=O)C[C@H](NC(=O)c1cn[nH]c1-c1c(F)cccc1C1CC1)c1cccc(Cl)c1` [I-590] the value was under 10 µM; for `FC[C@@]1(Nc2cc(N3CCOCC3)ccn2)CCCN(c2cccc(F)c2)C1` [I-277], over 200 µM.
The figure for `CC1(Nc2cc(N3CCOCC3)ccn2)CCCN(c2cccc(F)c2)C1` (centres unmarked) [I-222] is over 200 µM; for `c1ccc(Cn2cc(N3CCC[C@@H](Nc4cc(N5CCOCC5)ccn4)C3)cn2)cc1` [I-420] it is over 200 µM.
In the case of `NC(=O)CC(Cc1ccccc1)NC(=O)c1cn[nH]c1-c1cc(F)ccc1F` (centres unmarked) [I-814], the dissociation constant (Kd) was 10 to 100 µM.
Consider `C[C@H](C(N)=O)[C@H](NC(=O)c1c[nH]nc1-c1ccccc1F)c1cccc(Cl)c1` [I-212], for which the Kd was over 200 µM.
For `C=CC(=O)NCCOCC1CCN(c2ccnc(N[C@@H]3CCCN(c4cccc(F)c4)C3)c2)CC1` [I-803] the value was 10 to 100 µM.
The figure for `NC(=O)C[C@H](NC(=O)c1cn[nH]c1C(=O)c1ccccc1)c1cccc(Cl)c1` [I-619] is under 10 µM.
For `C[C@H]1CCCCN1c1ccnc(N2CC[C@@H]3[C@H]2CCCN3c2cccc(F)c2)c1` [I-643] the value was under 10 µM.
As to `c1cc(N2CCC[C@@H](Nc3cc(N4CCOCC4)ncn3)C2)c2cnccc2c1` [I-395], the dissociation constant Kd was over 200 µM.
For `Fc1cccc(N2CCC3CCCc4ncc(N5CCOCC5)cc4NC3C2)c1` (centres unmarked) [I-228] the value was over 200 µM; for `C=CC(=O)N(C)CCN(C)c1ccnc(N[C@@H]2CCCN(c3cccc(F)c3)C2)c1` [I-448], over 200 µM.
The figure for `c1cnc2c(N3CCC[C@@H](Nc4cc(N5CCOCC5)ncn4)C3)cccc2c1` [I-396] is over 200 µM; for `Fc1cccc(N2CCC[C@@H](N3CCCc4c(N5CCCCC5)ccnc43)C2)c1` [I-808] it is over 200 µM; for `c1ccc2c(N3CCC[C@@H](Nc4cc(N5CCOCC5)ccn4)C3)noc2c1` [I-73] it is 100 to 200 µM.
The figure for `OC[C@H]1C[C@H](Nc2cc(N3CCCCC3)ccn2)CN(c2cccc(F)c2)C1` [I-1012] is 10 to 100 µM; for `NC(=O)C[C@H](NC(=O)c1[nH]nc(NC2CCCCC2)c1-c1ccccc1F)c1cccc(Cl)c1` [I-171] it is over 200 µM.
In the case of `Cc1sc2c(c1C)C(c1ccc(Cl)cc1)=N[C@@H](CC(=O)N(C)CCOCCOCCOCCOCCOCC(=O)c1[nH]cc(C(=O)N[C@@H](CC(N)=O)c3cccc(Cl)c3)c1-c1ccccc1F)c1nnc(C)n1-2` [I-900], the Kd is under 10 µM.
For `CC(=O)N1CCN(c2ccnc(N3CC[C@@H]4[C@H]3CCCN4c3cccc(F)c3)c2)CC1` [I-948] the value was 10 to 100 µM.
For `Cc1c(F)ccc(F)c1-c1[nH]ncc1C(=O)N[C@@H](CC(=O)N1CC(N(C)C)C1)c1cccc(Cl)c1` [I-878] the value was under 10 µM; for `Cc1cccc(F)c1-c1c(C(=O)N[C@@H](CC(N)=O)c2cccc(Cl)c2)c[nH]c1C(=O)c1cccc(N2CCCCC2)c1` [I-700], under 10 µM.
For `c1ccc2c(N3CCC[C@@H](Nc4cc(N5CCOCC5)ccn4)C3)n[nH]c2c1` [I-111] the value was over 200 µM.
Turning to `COCCOCC[C@@H]1CN(c2cc(N3CCCCC3)ccn2)[C@H]2CCCN(c3cccc(F)c3)[C@@H]12` [I-934], the dissociation constant (Kd) was under 10 µM.
The figure for `CN(C)C(=O)c1cccnc1N1CCC[C@@H](Nc2cc(N3CCOCC3)ccn2)C1` [I-784] is over 200 µM; for `COc1ccc(N2CCC[C@@H](Nc3cc(N4CCOCC4)ncn3)C2)cc1` [I-10] it is over 200 µM.
Take `NC(=O)C[C@H](NC(=O)c1[nH]nc(Nc2ccccc2)c1-c1ccccc1F)c1cccc(Cl)c1` [I-169]: the dissociation constant (Kd) was 10 to 100 µM.
The figure for `Cc1c(F)ccc(F)c1-c1c(C(=O)N[C@@H](CC(N)=O)c2cccc(Cl)c2)csc1C(=O)c1ccccc1` [I-944] is under 10 µM.
The figure for `c1cc2ccnc(N3CCC[C@@H](Nc4cc(N5CCOCC5)ccn4)C3)c2cn1` [I-68] is 100 to 200 µM; for `CC(NC(=O)c1cn[nH]c1-c1cccc(Cl)c1)c1ccc[nH]1` (centres unmarked) [I-836] it is over 200 µM.
